We go through eight molecules from article PMC3804772, “Rational Design, Synthesis, and Biological Evaluation of Third Generation α-Noscapine Analogues as Potent Tubulin Binding Anti-Cancer Agents” (PLoS ONE, 2013).

The structures appear in SMILES notation. Like-named read-outs stand apart in the source and are kept apart here.

Data set [1] has as its target tubulin. The following applies: cited from earlier work.
Data set [2] relates to tubulin. Kind of data set: Tubulin binding of noscapine and previously reported noscapinoids (literature values). The following applies: Table 1; calculated from KD, ΔGbind = RT ln KD, T = 298 K. The procedure:
Here ⟨ ⟩ represent the ensemble average, b represents the bound form of the ligand, f represents the free form of the ligand, and α, β, and γ are the coefficients. U vdw, U elec, and U cav are the van der Waals, electrostatic, and cavity energy terms in the SGB continuum solvent model. The cavity energy term, U cav, is proportional to the exposed surface area of the ligand. Various energy parameters included in equation 1 were calculated from the docked complex corresponding to each analogue using Liaison package as described previously. The average LIE energy terms were used for building the binding affinity model and estimation of binding free energies of noscapine derivatives. The α, β, and γ LIE fitting parameters were determined using Minitab statistical package (version 16.0, Minitab Inc.) by fitting the experimental binding affinities of training set molecules. A dataset consisting of 7 noscapine derivatives (compounds: 1, 2a-f; Figure 2) with known experimental binding affinities was used as a training set.

In data set [3] the test system is human lung adenocarcinoma epithelial cell line (A549). In words: In vitro cell proliferation assay (SRB), A549. Format: cell-based. The following applies: 72 h, mean ± S.D. The procedure: (§1) The cell proliferation assay was performed in 96-well plates as described previously. A panel of four cancer cell lines of different tissues of origins, namely: human lung adenocarcinoma epithelial cell line (A549), human lymphoblast cell line (CEM), human cervix cell line (HeLa) and human breast epithelial cell line (MCF-7) were studied. These cell lines were obtained from the National Repository of Animal Cell Culture, National Centre for Cell Sciences, Pune (NCCS), India. Briefly, 2 x10^3 cells were seeded in each well and were incubated with gradient concentrations of 5a, 6a-j compounds for 72 h. The cells were then fixed with 50% trichloroacetic acid and stained with 0.4% sulforhodamine B (SRB) dissolved in 1% acetic acid. Cells were then washed with1% acetic acid to remove excess (unbound) SRB. The protein-bound SRB was dissolved with 10 mM Tris base and the absorbance at 564 nm was determined using a SPECTRAmax PLUS 384 microplate spectrophotometer.

Data set [4] deals with human lymphoblast cell line (CEM). In words: In vitro cell proliferation assay (SRB), CEM. The following applies: 72 h, mean ± S.D. Format: cell-based. On the procedure: as §1
Data set [5] relates to human cervix cell line (HeLa). In words: In vitro cell proliferation assay (SRB), HeLa. The format is cell-based. The following applies: 72 h, mean ± S.D. The procedure:
as §1

The subject of data set [6] is human breast epithelial cell line (MCF-7). Kind of data set: In vitro cell proliferation assay (SRB), MCF-7. Format: cell-based. The following applies: MCF7, 72 h, mean ± S.D. On the procedure: as §1
For a further data set, the system named is MCF-7 cells. Kind of data set: Cell cycle analysis by flow cytometry (propidium iodide). Format: cell-based, human. The following applies: MCF-7, 25 µM. On the procedure: The flow cytometric evaluation of the cell cycle status was performed as described previously. Briefly, cells (2 x 10^6) treated with the noscapinoids up to 72 h were centrifuged, washed twice with cold PBS, and fixed in 70% ethanol. Tubes containing the cell pellets were stored at 4 °C for minimum of 24 h. Cells were then centrifuged at 1000 x g for 10 min and the supernatant was discarded. The pellets were washed twice with 5 ml of PBS and then stained with 0.5 ml of propidium iodide (0.1% of Pl + 0.6% Triton-X in PBS) and 0.5 ml of RNase A (2 mg/ml) for 45 minutes in dark. Samples were then analyzed on a FACS Calibur flow cytometer ([…]).
(In flow cytometry, cells or beads pass a laser one at a time.)

The subject of data set [7] is cancer cells of different tissues of origin (CEM, HeLa, A549, MCF-7). Kind of data set: In vitro cell proliferation assay (SRB), panel of four cancer cell lines. Format: cell-based. The following applies: Homo sapiens; range over cancer cells of different tissues of origin. The procedure: as §1
Data set [8] has as its target T1, tubulin (Bos taurus, UniProt P81947+Q6B856).
T1 construct: Tubulin devoid of microtubule-associated proteins (MAPs) was purified from bovine brain; from tissue; host or cells: bovine brain
In words: Tubulin binding assay (quenching of intrinsic tryptophan fluorescence). Further details: species or system bovine. The procedure:
Tubulin devoid of microtubule-associated proteins (MAPs) was purified from bovine brain by cycles of temperature-dependent polymerization and depolymerization as described previously followed by phosphocellulose chromatography. The concentration of the tubulin was determined by the method of Bradford using BSA as the standard. Purified tubulin was quickly frozen as drops in liquid nitrogen and stored at - 80 °C until used.
Noscapinoids quench the […] intrinsic tryptophan fluorescence of tubulin in a concentration-dependent fashion as described previously. This has allowed an easy method for measuring the tubulin-noscapinoids interactions. Briefly, the compounds 5a, 6a-j (0-200 µM) were incubated with 2 µM tubulin in PEM buffer (100 mM PIPES, pH 6.8, 3 mM MgSO4, and 1 mM EGTA) at 37 °C for 45 min. After incubation, the samples were excited at 295 nm. The relative intrinsic fluorescence intensity of the tubulin was then monitored in the absence and presence of the compound 5a, 6a-j using a Varian Cary Eclipse Fluorescence Spectrophotometer (Agilent Technologies, CA, USA). The emission readings were recorded at 335 nm. We used a 0.3 cm path-length cuvette to minimize the inner filter effects caused by the absorbance of the noscapinoids. In addition, the inner filter effects were corrected using a formula F corrected = F observed·antilog [(A ex + A em)/2], where A ex is the absorbance at the excitation wavelength and A em is the absorbance at the emission wavelength. The equilibrium dissociation constant (KD) was determined by the formula: 1/a = KD/[free ligand] + 1, where a is the fractional occupancy and [free ligand] is the concentration of free ligand. The fractional occupancy (a) was determined by the formula a = ΔF/ΔF max, where ΔF is the change in fluorescence intensity when tubulin and its ligand are in equilibrium and ΔF max is the value of maximum fluorescence change when tubulin is completely bound with its ligand. ΔF max was calculated by plotting 1/ΔF versus 1/ligand, using total ligand concentration as the first estimate of free ligand concentration. Three independent experiments were performed for each noscapinoid.

The mark [9] stands for this setting: Table 1, training set with known experimental binding affinities, mean ± S.D., read-out: KD value.

For orientation: Kd means a measure of binding affinity in units of concentration. What is called IC50 is the midpoint of a concentration-inhibition curve. Lower therefore signals greater potency. The melting point is the temperature of the solid-liquid transition.

T1 sequence (Q6B856 whole entry): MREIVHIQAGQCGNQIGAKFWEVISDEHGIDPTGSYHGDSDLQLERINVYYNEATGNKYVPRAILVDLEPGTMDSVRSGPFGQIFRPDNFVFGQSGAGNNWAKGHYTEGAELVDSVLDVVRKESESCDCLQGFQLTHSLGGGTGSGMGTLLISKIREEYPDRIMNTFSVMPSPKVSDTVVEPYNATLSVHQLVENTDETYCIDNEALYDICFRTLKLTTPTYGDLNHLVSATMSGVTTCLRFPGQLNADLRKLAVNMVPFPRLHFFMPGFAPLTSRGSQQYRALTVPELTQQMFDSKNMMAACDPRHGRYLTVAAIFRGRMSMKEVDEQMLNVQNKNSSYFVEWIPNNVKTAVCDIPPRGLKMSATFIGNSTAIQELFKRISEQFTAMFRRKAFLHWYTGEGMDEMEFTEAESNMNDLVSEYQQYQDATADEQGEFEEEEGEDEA
T1 sequence (P81947 whole entry): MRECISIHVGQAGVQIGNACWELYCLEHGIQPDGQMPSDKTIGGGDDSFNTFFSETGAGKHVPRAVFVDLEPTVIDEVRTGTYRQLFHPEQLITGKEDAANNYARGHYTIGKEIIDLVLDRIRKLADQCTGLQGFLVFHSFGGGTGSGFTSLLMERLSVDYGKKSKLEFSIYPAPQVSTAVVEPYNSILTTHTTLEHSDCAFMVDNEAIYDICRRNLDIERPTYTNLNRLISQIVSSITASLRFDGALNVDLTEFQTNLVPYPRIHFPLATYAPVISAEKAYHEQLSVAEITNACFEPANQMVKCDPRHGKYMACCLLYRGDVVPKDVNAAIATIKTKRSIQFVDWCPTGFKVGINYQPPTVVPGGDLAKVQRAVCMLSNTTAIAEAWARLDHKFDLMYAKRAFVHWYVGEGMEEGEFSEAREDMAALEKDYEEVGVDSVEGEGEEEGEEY

For `COc1ccc2c(c1OC)C(=O)O[C@@H]2[C@H]1c2c(c([N+](=O)[O-])c3c(c2OC)OCO3)CCN1C` [Compound 2e], the Kd at tubulin [1] (setting [9]) is 86 ± 6 µM. For the same molecule, the “Experimental ΔGbind” value in the data set with tubulin [2] was -5.551 kcal/mol.

As for `COc1ccc2c(c1OC)C(=O)O[C@@H]2[C@H]1c2c(c(I)c3c(c2OC)OCO3)CCN1C` [Compound 2d], the Kd on tubulin [1] (setting [9]) is 22 ± 4 µM. In addition, the “Experimental ΔGbind” value with tubulin [2] is listed as -6.360 kcal/mol.

Turning to `COc1ccc2c(c1OC)C(=O)O[C@@H]2[C@H]1c2c(c(Cl)c3c(c2OC)OCO3)CCN1C` [Compound 2b], the Kd at tubulin [1] (setting [9]) is 40 ± 8 µM. Moreover, in the data set on tubulin [2], the “Experimental ΔGbind” value is -6.006 kcal/mol.

On to `COc1ccc2c(c1OC)C(=O)O[C@@H]2[C@H]1c2c(c(N=[N+]=[N-])c3c(c2OC)OCO3)CCN1C` [Compound 2f], for which the Kd on tubulin [1] (setting [9]) is 14 ± 1 µM. Further, the “Experimental ΔGbind” value in the data set on tubulin [2] is -6.628 kcal/mol.

On to `COc1ccc2c(c1OC)C(=O)O[C@@H]2[C@H]1c2c(cc3c(c2OC)OCO3)CCN1C` [Compound 1, noscapine], for which the “Binding stoichiometry, noscapine molecule per tubulin dimer” value in the data set with tubulin [1] is 0.95 ± 0.02. Further, the Kd on tubulin [1] (values quoted in the text for comparison, read-out: Equilibrium dissociation constant (KD)) was 144 ± 1 µM. In data set [3], this molecule gave an IC50 of 72.9 ± 4.6 µM. In addition, the midpoint of inhibition in [4], the IC50, lay at 14.5 ± 2.5 µM. For the same molecule, it took 24 ± 2.9 µM to reach half-maximal inhibition in data set [5] (IC50). In [6], the IC50 amounted to 42.3 ± 2.7 µM. In addition, in the data set with MCF-7 cells, the “Cell cycle parameters % G0/G1, 24 hours” value amounted to 19.48%; the “Cell cycle parameters % G2/M, 24 hours” value is 62.38%; the “Cell cycle parameters % S, 24 hours” value worked out at 4.19%; the “Cell cycle parameters % Sub-G1, 24 hours” value came out at 7.24%. In the data set on MCF-7 cells, the “Cell cycle parameters % G0/G1, 72 hours” value came out at 19.05%; the “Cell cycle parameters % G2/M, 72 hours” value is listed as 37.36%; the “Cell cycle parameters % S, 72 hours” value came to 8.53%; the “Cell cycle parameters % Sub-G1, 72 hours” value was found to be 30.62%. Besides, in the data set on tubulin [2], the “Experimental ΔGbind” value was -5.246 kcal/mol.

For the molecule `COc1ccc2c(c1OC)C(=O)O[C@@H]2[C@H]1c2c(c(Br)c3c(c2OC)OCO3)CCN1C` [Compound 2c, 9-bromonoscapine], the Kd on tubulin [1] (setting [9]) is 54 ± 9.1 µM. For the same molecule, in the data set with tubulin [2], the “Experimental ΔGbind” value is listed as -5.827 kcal/mol.

Consider `COc1ccc2c(c1OC)C(=O)O[C@@H]2[C@H]1c2c(c(F)c3c(c2OC)OCO3)CCN1C` [Compound 2a], for which the dissociation constant Kd at tubulin [1] (setting [9]) was 81 ± 8 µM. Moreover, in the data set on tubulin [2], the “Experimental ΔGbind” value was -5.587 kcal/mol.

`COc1ccc2c(c1OC)C(=O)O[C@@H]2[C@H]1c2c(cc3c(c2OC)OCO3)CCN1Cc1cccc(Br)c1` [Compound 6f, (S)-3-((R)-6-(3-bromobenzyl)-4-methoxy-5,6,7,8-tetrahydro-[1,3]dioxolo[4,5-g]isoquinolin-5-yl)-6,7-dimethoxyisobenzofuran-1(3H)-one] came in with a melting point of 65 °C. The molecule also displayed an IC50 in [7] of 6.7 to 26.9 µM. Also, on tubulin [8] (2 µM tubulin, PEM buffer pH 6.8, 37 °C, 45 min, mean ± S.D.), the Kd is 38 ± 4 µM. In addition, the “Experimental ΔGbind” value at tubulin [8] (calculated from KD, ΔGbind = RT ln KD, T = 298 K) was -6.036 kcal/mol. For the same molecule, the “Tubulin binding affinity relative to the parent compound noscapine” value at tubulin [8] (ratio of KD values) is listed as ~ 4.0 times. Moreover, in data set [3], it took 26.9 ± 1.4 µM to reach half-maximal inhibition (IC50). This molecule also had an IC50 in data set [4] of 6.7 ± 0.3 µM. In [5], this molecule had an IC50 of 15.3 ± 0.5 µM. The same molecule came in with an IC50 in [6] of 24.5 ± 0.8 µM. Further, in the data set with MCF-7 cells, the “Cell cycle parameters % G0/G1, 24 hours” value came to 11.82%; the “Cell cycle parameters % G2/M, 24 hours” value amounted to 67.48%; the “Cell cycle parameters % S, 24 hours” value is listed as 6.29%; the “Cell cycle parameters % Sub-G1, 24 hours” value is listed as 9.47%. For the same molecule, in the data set with MCF-7 cells, the “Cell cycle parameters % G0/G1, 72 hours” value turned out to be 6.38%; the “Cell cycle parameters % G2/M, 72 hours” value is reported as 37.29%; the “Cell cycle parameters % S, 72 hours” value came out at 4.72%; the “Cell cycle parameters % Sub-G1, 72 hours” value is 50.44%.
